# Results: paper PMC5402304, “Oxoaporphine Metal Complexes (Co^II, Ni^II, Zn^II) with High Antitumor Activity by Inducing Mitochondria-Mediated Apoptosis and S-phase Arrest in HepG2” (Scientific Reports, 2017)
# What was measured:
# [1] = system: cleaved PARP; test: Western blot of cleaved PARP in HepG2 cells; type: cell-based, human; conditions: 24 h
# Protocol: During the caspases-activated apoptotic cascades, mitochondrial apoptotic genes Apaf-1, PARP play an important role. The expressions of Apaf-1, pro-PARP and cleaved PARP in HepG2 cells treated with 3 were carried out by Western blotting. […] The expression of Apaf-1 protein was further confirmed by RT-PCR (Fig. 13C) that the up-regulation of Apaf-1 was also observed. PARP was considered to be an important indicator of cell apoptosis, and the cleaved PARP could cause cellular inactivation and prevent DNA repair.
# After incubated with 1–3 (1.0 μM) for 24 h, HepG2 cells were harvested and lysed in 150 μL of lysed buffer (149 μL RIPA and 1 μL PMSF), and then placed on ice for 15 min. The total proteins were extracted by centrifuging the cell sample at 10000 rpm at 4 °C for 10 min. Then about 50 μg of purified proteins were mixed with equal volume of electrophoresis sample buffer, and the mixture was boiled for 10 min. Meanwhile the equal protein content from the control cells was prepared in the same way. The cell sample (10 μL) was loaded onto 10% SDS-PAGE gels and then transferred onto a microporous polyvinylidene difluoride (PVDF) membrane. The membrane was blocked with 5% BSA in TBST buffer for more than 2 h. […] The immunoreactive signals were detected using an enhanced chemo-luminance kit (Pierce ECL Western Blotting Substrate) following the procedures given in the user manual.
# [2] = system: HepG2; test: Cell apoptosis assay by flow cytometry, Annexin V-FITC/PI; type: cell-based, human; conditions: HepG2, 5.0 μM, 24 h
# Protocol: The quantitative analysis of apoptotic HepG2 induced by 1–3 (1.0, 2.0 and 5.0 μM) and their corresponding metal salts (5.0 μM) after 24 h treatment, were investigated by flow cytometry and Annexin V-FITC/PI double staining. As depicted in Figs 7 and S6, 1–3 caused a significant increase in apoptotic cells comparing to the untreated cells.
# Cell cycle progression and apoptosis were determined by flow cytometric analysis. (a) Cell cycle arrest assay: HepG2 cells in their logarithmic phase were plated into 50 mL plates at a final density of 5−6 × 10^6 cells/well overnight, then they were treated with various doses (0.25, 0.5 and 1.0 μM) of 1–3 for another 24 h. Cells were trypsinized, collected, and fixed in ice-cold 75% ethanol at −20 °C overnight. After centrifugation, the fixed cells were rinsed with ice-cold phosphate buffered saline (PBS), and resuspended in 0.5 mL of PBS containing 100 μg/mL RNase, 50 μg/mL propidium iodide (PI) in the dark for 5−10 min. The cell cycle distribution was analyzed by FACS Calibur flow cytometer (BD) and calculated using ModFIT LT software. (b) Apoptosis assay: 1 × 10^5 HepG2 cells were plated in 6-well plates, after incubation for 24 h with complexes 1–3 at 1.0, 2.0 and 5.0 μM, cells were collected, and Apoptosis Detection kit FITC Annexin V was used to analyze the cell apoptosis according to the manufacturer’s instructions.
# [3] = system: BEL-7404; test: MTT cytotoxicity assay, BEL-7404; type: cell-based, human
# Protocol: The in vitro cytotoxicity of OD, 1–3 and the corresponding metal salts were determined by MTT assay towards a panel of human tumor cells including HepG2, T-24, BEL-7404, MGC80-3, SK-OV-3/DDP and normal HL-7702 cells. As the positive control, cisplatin was dissolved at a concentration of 1 mM in 0.154 M NaCl[32].
# The human tumor cell lines (BEL-7404, HepG2, MGC80–3, T-24, SK-OV-3/DDP and HeLa cells) and the human normal liver cell line HL-7702 were obtained from Shanghai Cell Bank in Chinese Academy of Sciences. Cells were cultured in Dulbecco’s modified Eagle’s medium (DMEM) or RPMI-1640 medium, which supplemented with 10% fetal bovine serum (FBS) and 100 U/mL penicillin and streptomycin. Cells were cultured at 37 °C in a humidified atmosphere with 5% CO2/95% air. Tested compounds (2.0 mM) were prepared as DMSO stock solution before they were diluted to working concentrations by PBS buffer (containing 0.5% DMSO), while cisplatin dissolved in 0.9% sodium chloride solution was used as positive controls.
# Cells in their logarithmic phase were seeded in 96-well plates with 5.5 × 10^3/180 μL per well for 24 h. Then 20 μL of compounds at various concentrations were added to each well to achieve final concentrations of 1.25, 2.5, 5.0, 10.0, and 20.0 μM. All the cells were incubated with test compounds for another 48 h before MTT assay. Control wells contained media with 0.5% DMSO. After 48 h of cultivation, 10 μL of MTT (5 mg/mL in PBS) was added to each well, and cells were incubated at 37 °C for 6 h. The contents in the wells were pipetted out carefully, and the formazan crystals formed were dissolved in 100 μL of DMSO, and the absorbance was measured by enzyme labeling instrument with 490 nm/630 nm double wavelength measurement. The IC50 value was defined as a drug concentration killing 50% cells in comparison with untreated controls, which was calculated by the Bliss method (n = 5). All tests were repeated in at least three independent trials.
# [4] = Solution stability by HPLC; type: physicochemical; conditions: TBS; 0 and 24 h; mobile phase methanol/H2O 80/20
# Protocol: The stability of 1–3 in Tris-HCl buffer solution (TBS, pH = 7.35, containing 1% DMSO) for 0, 12 and 48 h were primarily analyzed by means of UV-Vis spectroscopy, as shown in Figure S1.
# The stability of 1–3 under physiological conditions ([…] buffer solution with pH value of 7.35, containing 1% DMSO), was carried out using UV-vis spectroscopy and HPLC. 1–3 were dissolved in DMSO at 1 × 10^−3 M, and then diluted by buffer solution. The UV-vis absorbance of these complexes at 0 h, 12 h and 48 h were measured, respectively. The solution stability of 3 was further confirmed by HPLC experiments. 3 in aqueous solution at 1.0 mg · mL^−1 was analyzed by HPLC at 0 h and 24 h respectively, with reversed-phase C18 column and methol/H2O (80:20) as mobile phase.
substance,measurement,setting,value
[Zn(OD)2(H2O)2] (ClO4)2 [Complex 3],increment of cleaved PARP,[1],approximately 70 fold
same,population of apoptotic cells,[2],25.3%
same,inhibitive ratio,"[3]; BEL-7404, 20 μmol/L, 48 h",61.00±0.19%
same,IC50,"[3]; BEL-7404, 48 h, MTT",12.6 ± 0.45 µM
same,stability in solution (HPLC chromatograms),[4],no obvious changes of HPLC chromatograms
